Data reported in patent US20260224533A1, “CRYSTALLINE NANOPARTICLES COMPRISING ENZALUTAMIDE” (HELM PHARMACEUTICALS GMBH, priority 2023, published 2026).
≈ marks a conversion by molar mass, not a printed value.

Experiments:
[1] = Kinetic solubility of Enzalutamide in simulated fluids; format: physicochemical; conditions: kinetic from dmso stock, 37° C.
From the text: Preferably, the content of the amorphous nanosized Enzalutamide in the slurry or suspension is at least 10 times higher, more preferably at least 50 times, still more preferably at least 100 times higher, even more preferably at least 500 times higher than its solubility in the liquid, preferably aqueous solution, comprising the one or more polymers and/or copolymers to form the suspension or the slurry. Accordingly, the amount of Enzalutamide amorphous nanoparticles provided in step (a) that is needed depends on its solubility. The solubility can be measured by any method known in the art. […] A decent slurry can thus be produced when the slurry or suspension comprises e.g. 5 mg of the amorphous nanoparticles provided in step (a) in 1 mL of the slurry or suspension.

[2] = cited from earlier work

solubility kinetic ([1]; Fasted State Simulated Intestinal Fluid (FaSSIF)): ~74 µg/mL (≈ 159 µM)
solubility kinetic ([1]; Simulated Gastric Fluid (SGF)): ~50 µg/mL (≈ 108 µM)
SMILES: CNC(=O)c1ccc(N2C(=S)N(c3ccc(C#N)c(C(F)(F)F)c3)C(=O)C2(C)C)cc1F [Enzalutamide]
solubility in water [2]: insoluble
